Test results reported in patent US9403786B2, “Anti-inflammatory compounds” (University of South Australia, priority 2009, dated 2016).

System: TPA-induced mouse ear oedema
Experiment: TPA-induced mouse ear oedema model
Type: in vivo, Male Balb/C mice
Protocol: Anti-inflammatory activity was measured in the mouse ear oedema model using 12-O-tetradeconoylphorbol-13-acetate (TPA) (Sigma) or croton oil as the inducer of inflammation (Sanchez, T and Moreno, J 1999, Role of leukocyte influx in tissue prostaglandin H synthase-2 overexpression induced by phorbol ester and arachidonic acid in skin, Biochemical Pharmacology, 58, 877-879.). Male Balb/C mice 7-9 weeks old and weighing 20-25 g were used. Mice were housed in cages at constant room temperature (20±2° C.) with access to food (standard rat/mouse pellet) and water ad libitum. A 12 hr day/night cycle was maintained in the animal holding facility (Reid building animal house, University of South Australia) and all experiments were carried out during the day phase.
Baseline measurements of ear thickness were measured using a digital micrometer (±0.001 mm, Mitutoyo, Japan) prior to the experiment. TPA (2.5 μg/ear), which was dissolved in acetone, was then applied in a volume of 20 μL to the inner surface of the right ear and 20 μL of acetone to the left ear as control. After thirty minutes the test samples, which were dissolved in 80% ethanol, were applied to the inner surface of the right ear and 80% ethanol on the left ear to the respective treatment groups. Betamethasone 17,21-dipropionate (Sigma) (0.9 μmol/ear) was used as a positive control. Multi-dose experiments were conducted over the range 0.005-1.83 μmol/ear. At 2 h, 4 h, 6 h, 8 h, 24 h and 48 h after the application, the ear thicknesses were measured using a digital micrometer. A non-treated control group to which only croton oil or TPA were applied was used as a measure of maximum inflammation achieved with percent inhibition of inflammation of test sample being calculated relative to this group. Following completion of the experiment, mice were euthanized by inhalation of isoflurane followed by cervical dislocation.

With “15,16-epoxy-8(α)-(benzoyloxy)methyl-cleroda-3,13(16), 14-trien-18-oic acid [Compound E]” the anti-inflammatory activity (TPA-induced mouse ear oedema model) was “significant anti-inflammatory activity”, the maximum inhibition (dose of 0.91 μmol) was 76.4±7.3% and the “effect at lower concentrations” value (doses lower than 1.83 μmol/ear) was “no observable effect”. For the same substance, the “activity when compared to TPA only control” value (highest dose tested 1.83 μmol/ear, p<0.05) was “some significant level of activity”.
